Experimental data as given in patent US12590062B2, “PD-1/PD-L1 inhibitors” (Gilead Sciences, Inc., priority 2017, dated 2026).

How the values were obtained:
PD-1/PD-L1 interaction = molecular target: T1, PD-1/PD-L1 interaction (Homo sapiens, UniProt Q9NZQ7); assay: PD-1/PD-L1 NFAT reporter co-culture assay; assay type: cell-based; settings: Jurkat PD-1 NFAT-luciferase cells co-cultured with aAPC-PD-L1 CHO cells, 6 hrs at 37° C.; read-out: EC50 NFAT Luciferase
T1 construct: expressed in transfected cells; host or cells: CHO cells (aAPC-PD-L1) co-cultured with Jurkat cells overexpressing PD-1 and an NFAT-luciferase reporter
T1 sequence (Q9NZQ7 19-290): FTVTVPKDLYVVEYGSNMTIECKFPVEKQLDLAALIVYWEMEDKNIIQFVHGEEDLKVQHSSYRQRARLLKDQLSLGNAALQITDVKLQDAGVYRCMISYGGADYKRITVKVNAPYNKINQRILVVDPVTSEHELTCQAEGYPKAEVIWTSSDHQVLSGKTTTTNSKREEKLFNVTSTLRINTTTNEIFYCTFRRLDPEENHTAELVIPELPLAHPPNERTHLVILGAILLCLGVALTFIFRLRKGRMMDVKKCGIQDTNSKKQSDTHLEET
Outline: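 Restoration of TCR-driven NFAT luciferase signal: 6 h, 37 °C co-culture of PD-1 Jurkat reporter cells (pre-mixed with compound) on overnight-seeded PD-L1/anti-CD3 CHO monolayer. ONE-Glo luminescence; dose-response fitted to four-parameter equation for EC50.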

PD-1/PD-L1 = PD-1/PD-L1 (Homo sapiens, UniProt Q9NZQ7); assay: PD-1/PD-L1 biochemical protein-protein interaction assay (ALPHA); assay type: binding; settings: 0.3 nM His tagged PD-L1, 2.5 nM biotinylated Fc-PD-1, 60 minutes at 25° C., read-out: IC50 PD-L1-PD-1 Alpha IC50-mono PD-L1-fcP-D1
PD-1/PD-L1, sequence (Q9NZQ7 19-238 limits assumed): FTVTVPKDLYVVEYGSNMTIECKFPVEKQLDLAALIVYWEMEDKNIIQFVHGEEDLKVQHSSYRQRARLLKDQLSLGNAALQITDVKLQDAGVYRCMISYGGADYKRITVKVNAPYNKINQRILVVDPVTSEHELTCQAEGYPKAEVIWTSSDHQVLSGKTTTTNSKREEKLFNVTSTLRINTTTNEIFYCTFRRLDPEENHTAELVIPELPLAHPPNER
Outline: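 Compound blockade of the PD-1/PD-L1 extracellular-domain interaction measured as reduced ALPHA signal after 60 min at 25 °C, pH 7.4 Hepes buffer with EDTA, Tween 20 and BSA. Final proteins: His-tagged PD-L1 0.3 nM, biotinylated Fc-PD-1 2.5 nM; four-parameter curve fit gives IC50.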

PD-L1 = molecular target: T2, PD-L1 (Homo sapiens, UniProt Q9NZQ7); assay: PD-L1/PD-L1 dimerization biochemical protein-protein interaction assay (ALPHA); assay type: binding; settings: compound-induced PD-L1 dimerization, head prints '1 nM' (0.5 nM His-tagged PD-L1 and 0.5 nM FLAG-tagged PD-L1), read-out: AC50 PDL1 Dimer Alpha 1 nM
T2 construct: determine if they can specifically dimerize the extracellular domains of PD-L1
T2 sequence (Q9NZQ7 19-238 limits assumed): as above
T2 sequence (Q9NZQ7 19-238 limits assumed): as above
Outline: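 After 2 h at 25 °C with compound, His- and FLAG-tagged PD-L1 ECDs (each 0.5 nM final; 25 mM Hepes pH 7.4, 150 mM NaCl) were detected by sequential anti-His acceptor and anti-FLAG donor bead incubations. Dose-response curves fitted to four-parameter equation for AC50.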

SMILES | EC50 (PD-1/PD-L1 interaction) [nM] | IC50 (PD-1/PD-L1) [nM] | AC50 (PD-L1) [nM]
C[C@@](CO)(NCc1cc(Cl)c(O[C@H]2CCc3c(-c4cccc5c4CC[C@@H]5Oc4nc(OCc5cc(C#N)cc(C#N)c5)c(CN[C@@](C)(CO)C(=O)O)cc4Cl)cccc32)nc1OCc1cc(C#N)cc(C#N)c1)C(=O)O [Example 686] | 46 | 0.282 | 137
C[C@@](CO)(NCc1cc(Cl)c(O[C@H]2CCc3c(-c4cccc5c4CC[C@@H]5Oc4ccc(CN5CC[C@@H](O)C5)c(OCc5cncc(S(C)(=O)=O)c5)n4)cccc32)nc1OCc1cncc(S(C)(=O)=O)c1)C(=O)O [Example 687] | 605 | 0.659 | 3100
C[C@@](CO)(NCc1cc(Cl)c(O[C@H]2CCc3c(-c4cccc5c4CC[C@@H]5Oc4nc(OCc5cncc(S(C)(=O)=O)c5)c(CN5CC[C@@H](O)C5)cc4Cl)cccc32)nc1OCc1cncc(S(C)(=O)=O)c1)C(=O)O [Example 688] | ≥ 50000 | 0.412 | 141
CS(=O)(=O)c1cncc(COc2nc(O[C@H]3CCc4c(-c5cccc6c5CC[C@@H]6Oc5nc(OCc6cncc(S(C)(=O)=O)c6)c(CN6CC[C@@H](O)C6)cc5Cl)cccc43)c(Cl)cc2CN2CC[C@@H](O)C2)c1 [Example 689] | 139 | 0.064 | 114
C[C@@](CO)(NCc1cc(Cl)c(O[C@H]2CCc3c(-c4cccc5c4CC[C@@H]5Oc4nc(OCc5cncc(S(C)(=O)=O)c5)c(CNCCO)cc4Cl)cccc32)nc1OCc1cncc(S(C)(=O)=O)c1)C(=O)O [Example 690] | 287 | 0.28 | 80.8
C[C@@](CO)(NCc1cc(Cl)c(O[C@H]2CCc3c(-c4cccc(-c5ccc6c(c5)C[C@H](N)C6)c4Cl)cccc32)nc1OCc1cncc(C#N)c1)C(=O)O [Example 695] | 26 | 0.064 | 21.6
C[C@@](CO)(NCc1cc(Cl)c(O[C@H]2CCc3c(-c4cccc(-c5ccc6c(c5)C[C@@H](N)C6)c4Cl)cccc32)nc1OCc1cncc(C#N)c1)C(=O)O [Example 696] | 12 | 0.099 | 16.9
COc1nc(-c2cccc(-c3cccc4c3CC[C@@H]4Oc3nc(OC)c(CN[C@@](C)(CO)C(=O)O)cc3Br)c2Br)ccc1CNC[C@@H]1CCC(=O)N1 [Example 697] | 50 | 0.068 | 51
COc1nc(-c2cccc(-c3cccc4c3CC[C@@H]4Oc3nc(OC)c(CNC[C@@H]4CCC(=O)N4)cc3Br)c2Br)ccc1CNC[C@@H]1CCC(=O)N1 [Example 698] | 152 | 0.704 | 111
COc1nc(-c2cccc(-c3cccc4c3CC[C@@H]4Oc3nc(OCc4cncc(C#N)c4)c(CN[C@@](C)(CO)C(=O)O)cc3Br)c2Br)ccc1CNC[C@@H]1CCC(=O)N1 [Example 699] | 136 | 0.12 | 24.7
COc1nc(-c2cccc(-c3cccc4c3CC[C@@H]4Oc3nc(OCc4cncc(C#N)c4)c(CN[C@@](C)(CO)C(=O)O)cc3Cl)c2Br)ccc1CNC[C@@H]1CCC(=O)N1 [Example 700] | 43 | 0.064 | 22.1
COc1nc(-c2cccc(-c3cccc4c3CC[C@@H]4Oc3nc(OCc4cncc(C#N)c4)c(CNC(C)(C)C(=O)O)cc3Cl)c2Br)ccc1C1=NCCN1 [Example 701] | 3050 | 0.818 | 332
COc1nc(-c2cccc(-c3cccc4c3CC[C@@H]4Oc3nc(OCc4cncc(C#N)c4)c(CN[C@@](C)(CO)C(=O)O)cc3Cl)c2Br)ccc1C1=NCCN1 [Example 702] | 1310 | 0.316 | 332
COc1nc(O[C@H]2CCc3c(-c4cccc(-c5cnc(CN6CC(CO)C6)c(OC)n5)c4Cl)cccc32)c(Cl)cc1CN1CC[C@H](C(=O)O)C1 [Example 703] | 11 | 0.064 | 24.2
COc1nc(-c2cccc(-c3cccc4c3CC[C@@H]4Oc3nc(OC)c(CN4CC[C@H](C(=O)O)C4)cc3Cl)c2Cl)ccc1CN1CC(CO)C1 [Example 704] | 11 | 0.064 | 66.8
COc1nc(O[C@H]2CCc3c(-c4cccc(-c5cnc(CN6CC(C)(O)C6)c(OC)n5)c4Cl)cccc32)c(Cl)cc1CN1CC[C@H](C(=O)O)C1 [Example 705] | 20 | 0.064 | 60.6
COc1nc(-c2cccc(-c3cccc4c3CC[C@@H]4Oc3nc(OC)c(CN4CC[C@H](C(=O)O)C4)cc3Cl)c2Cl)ccc1CN1CC(C)(O)C1 [Example 706] | 14 | 0.064 | 42.8
COc1nc(O[C@H]2CCc3c(-c4cccc(-c5cnc(CN6CC(C)(CO)C6)c(OC)n5)c4Cl)cccc32)c(Cl)cc1CN1CC[C@H](C(=O)O)C1 [Example 707] | 31 | 0.064 | 39.3

SMILES | EC50 (PD-1/PD-L1 interaction) [nM] | IC50 (PD-1/PD-L1) [nM] | AC50 (PD-L1) [nM]
COc1nc(-c2cccc(-c3cccc4c3CC[C@@H]4Oc3nc(OC)c(CN4CC[C@H](C(=O)O)C4)cc3Cl)c2Cl)ccc1CN1CC(C)(CO)C1 [Example 708] | 34 | 0.064 | 38.6
COc1nc(O[C@H]2CCc3c(-c4cccc(-c5cnc(CN6CC(O)C6)c(OC)n5)c4Cl)cccc32)c(Cl)cc1CN1CC[C@H](C(=O)O)C1 [Example 709] | 21 | 0.064 | 49.4
COc1nc(-c2cccc(-c3cccc4c3CC[C@@H]4Oc3nc(OC)c(CN4CC[C@H](C(=O)O)C4)cc3Cl)c2Cl)ccc1CN1CC(O)C1 [Example 710] | 22 | 0.064 | 54.6
COc1nc(O[C@H]2CCc3c(-c4cccc(-c5cnc(CNC[C@H]6C[C@H](O)C6)c(OC)n5)c4Cl)cccc32)c(Cl)cc1CN1CC[C@H](C(=O)O)C1 [Example 711] | 69 | 0.069 | 103
COc1nc(-c2cccc(-c3cccc4c3CC[C@@H]4Oc3nc(OC)c(CN4CC[C@H](C(=O)O)C4)cc3Cl)c2Cl)ccc1CNC[C@H]1C[C@H](O)C1 [Example 712] | 12 | 0.064 | 33
COc1nc(-c2cccc(-c3cccc4c3CC[C@@H]4Oc3nc(OC)c(CN4CC(C(=O)O)C4)cc3Cl)c2Cl)ccc1CN1CC2(CCC(=O)N2)C1 [Example 713] | 25 | 0.064 | 69.4
COc1nc(-c2cccc(-c3cccc4c3CC[C@@H]4Oc3nc(OC)c(CN4CC[C@H](C(=O)O)C4)cc3Cl)c2Cl)ccc1CN1CC2(CCC(=O)N2)C1 [Example 714] | 26 | 0.064 | 66.3
COc1nc(O[C@H]2CCc3c(-c4cccc(-c5ccc(CNC[C@@H]6CCC(=O)N6)cc5)c4Cl)cccc32)c(Cl)cc1CN1CCCC[C@H]1C(=O)O [Example 715] | 35 | 0.064 | 7.89
COc1nc(O[C@H]2CCc3c(-c4cccc(-c5ccc(CNC[C@@H]6CCC(=O)N6)cc5)c4Cl)cccc32)c(Cl)cc1CN[C@H]1CCC[C@H]1O [Example 716] | 343 | 0.403 | 15.1
COc1nc(O[C@H]2CCc3c(-c4cccc(-c5ccc(CNC[C@@H]6CCC(=O)N6)cc5)c4Cl)cccc32)c(Cl)cc1CN[C@@H]1CCC[C@@H]1O [Example 717] | 484 | 0.572 | 16.2
COc1nc(O[C@H]2CCc3c(-c4cccc(-c5ccc(CNC[C@@H]6CCC(=O)N6)cc5)c4Cl)cccc32)c(Cl)cc1CN1CC[C@H](O)C1 [Example 718] | 704 | 0.242 | 70.4
COc1nc(O[C@H]2CCc3c(-c4cccc(-c5ccc(CNC[C@@H]6CCC(=O)N6)cc5)c4Cl)cccc32)c(Cl)cc1CN1CCC[C@H](C(=O)O)C1 [Example 719] | 110 | 0.064 | 32.7
COc1nc(O[C@H]2CCc3c(-c4cccc(-c5ccc(CNC[C@@H]6CCC(=O)N6)cc5)c4Cl)cccc32)c(Cl)cc1CN1CC(O)C1 [Example 720] | 558 | 0.262 | 94.9
COc1nc(O[C@H]2CCc3c(-c4cccc(-c5ccc(CNC[C@@H]6CCC(=O)N6)cc5)c4Cl)cccc32)c(Cl)cc1CN1CC(C(=O)O)C1 [Example 721] | 14 | 0.064 | 19
COc1nc(O[C@H]2CCc3c(-c4cccc(-c5ccc(CNC[C@@H]6CCC(=O)N6)cc5)c4Cl)cccc32)c(Cl)cc1CN1CC[C@@H](C(=O)O)C1 [Example 722] | 47 | 0.064 | 16
COc1nc(O[C@H]2CCc3c(-c4cccc(-c5ccc(CNC[C@@H]6CCC(=O)N6)cc5)c4Cl)cccc32)c(Cl)cc1CN1CC[C@H](C(=O)O)C1 [Example 723] | 41 | 0.064 | 35.1
COc1nc(O[C@H]2CCc3c(-c4cccc(-c5ccc(CNC[C@@H]6CCC(=O)N6)cc5)c4Cl)cccc32)c(Cl)cc1CN1CCC[C@@H]1C(=O)O [Example 724] | 120 | 0.064 | 21.2
